{
  "source": "paper PMC8413904",
  "about": "(Pharmacology Research & Perspectives, 2021)",
  "key": {"GluN1/2D [1]": {"target": "T1, GluN1/2D (UniProt O15399+P35439)", "T1 sequence (O15399 28-1336, other chains not shown)": "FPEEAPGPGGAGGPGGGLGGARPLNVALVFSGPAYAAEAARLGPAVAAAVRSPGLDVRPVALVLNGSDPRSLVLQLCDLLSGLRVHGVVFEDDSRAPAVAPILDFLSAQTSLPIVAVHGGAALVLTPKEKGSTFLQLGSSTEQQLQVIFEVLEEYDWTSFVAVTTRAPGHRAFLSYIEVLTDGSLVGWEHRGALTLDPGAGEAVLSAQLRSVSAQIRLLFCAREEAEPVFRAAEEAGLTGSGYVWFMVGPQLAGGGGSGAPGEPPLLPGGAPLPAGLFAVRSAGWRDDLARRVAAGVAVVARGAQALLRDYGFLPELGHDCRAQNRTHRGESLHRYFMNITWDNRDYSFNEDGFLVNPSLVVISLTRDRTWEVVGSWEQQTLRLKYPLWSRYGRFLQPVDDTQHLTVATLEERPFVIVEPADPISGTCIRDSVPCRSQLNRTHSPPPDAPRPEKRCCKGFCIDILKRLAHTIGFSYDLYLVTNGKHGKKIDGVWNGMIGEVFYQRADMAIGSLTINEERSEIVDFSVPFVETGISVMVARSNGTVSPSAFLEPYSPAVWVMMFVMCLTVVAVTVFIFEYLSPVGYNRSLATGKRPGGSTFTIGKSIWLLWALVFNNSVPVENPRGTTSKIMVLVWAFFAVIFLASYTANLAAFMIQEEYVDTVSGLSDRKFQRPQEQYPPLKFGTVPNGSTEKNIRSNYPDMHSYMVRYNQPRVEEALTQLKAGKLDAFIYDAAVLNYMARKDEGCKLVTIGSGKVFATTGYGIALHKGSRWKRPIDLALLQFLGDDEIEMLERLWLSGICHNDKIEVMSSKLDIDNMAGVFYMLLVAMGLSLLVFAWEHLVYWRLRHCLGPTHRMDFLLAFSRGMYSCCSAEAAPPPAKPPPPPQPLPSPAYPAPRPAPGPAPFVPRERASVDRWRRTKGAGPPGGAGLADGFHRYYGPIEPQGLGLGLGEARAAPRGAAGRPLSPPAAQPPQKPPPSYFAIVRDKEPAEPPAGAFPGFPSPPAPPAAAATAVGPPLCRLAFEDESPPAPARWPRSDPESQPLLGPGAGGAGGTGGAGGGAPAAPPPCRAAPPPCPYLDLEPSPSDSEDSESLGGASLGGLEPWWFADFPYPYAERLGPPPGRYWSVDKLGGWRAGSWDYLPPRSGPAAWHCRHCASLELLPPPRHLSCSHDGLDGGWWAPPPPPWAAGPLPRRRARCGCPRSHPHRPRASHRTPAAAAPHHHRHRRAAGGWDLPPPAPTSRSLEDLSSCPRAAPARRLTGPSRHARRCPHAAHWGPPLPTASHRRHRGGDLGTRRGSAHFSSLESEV", "experiment": "Current–voltage (I–V) relationship, TEVC in xenopus oocytes", "procedure": "(§4) GluN1A, GluN2B, GluN2C, GluN2D, and GluN1/2A/2B cRNAs were mixed in a ratio of 1:1–3. 50 nl of the final cRNA mixture was microinjected (40–70 ng total) into the oocyte cytoplasm. Oocytes were incubated in ND‐96 solution at 18^◦C prior to electrophysiological recordings (1–3 days).\n(§5) After obtaining a steady‐state response to different agonist applications, agonist plus 100 μM CNS4 or agonist plus 40 μM MgCl2 plus 100 μM CNS4 was applied. […] Data points were aligned by least‐square fit by third‐order polynomial equation (Y = B0 + B1*X +B2*X ^2 + B3*X ^3), except for GluN1/2B that needed a fourth‐order polynomial equation."}, "GluN1/2D [2]": {"target": "T1, GluN1/2D", "experiment": "TEVC electrophysiology dose–response in xenopus oocytes", "assay_type": "cell-based", "set-up": "host or cells: Xenopus oocytes (cRNA injection)", "source_text": "(§6) NMDAR constructs: cDNA encoding the NMDAR1a subunit (GluN1a) was obtained from Dr. Nakanishi. cDNA encoding the GluN2B (pci_sepGluN2B) was developed initially in the Malinow lab[36] and purchased from Addgene (cat# 23998). cDNA encoding the GluN2C and GluN2D were purchased from GenScript. Mutated GluN1, 2A and 2B cDNA constructs capable of assembling as GluN1/2A/2B triheteromeric (1/2AB) receptors[37] were obtained from Dr. Paoletti (Laboratoire de Neurobiologie, CNRS). […] Plasmids were linearized with NotI (GluN1a) or Avrll (GluN2B), or BstB1 (GluN2C and GluN2D) and transcribed in vitro with T7 (GluN1a, GluN1/2A, GluN2B, GluN2C, & GluN2D) RNA polymerase using the mMessage mMachine transcription kits (Invitrogen by Thermo Fisher Scientific).\n(§7) Stage IV frog oocytes were obtained from Xenopus‐I. NMDAR subunit cRNAs were suspended in nuclease‐free sterile water. GluN1A, GluN2B, GluN2C, GluN2D, and GluN1/2A/2B cRNAs were mixed in a ratio of 1:1–3. 50 nl of the final cRNA mixture was microinjected (40–70 ng total) into the oocyte cytoplasm. Oocytes were incubated in ND‐96 solution at 18^◦C prior to electrophysiological recordings (1–3 days).\n(§8) Electrophysiological responses were measured using a standard two‐microelectrode voltage‐clamp workstation [Warner Instruments (Hamden, Connecticut) model OC‐725C] designed to provide a fast clamp of large cells. The recording buffer contained 116 mM NaCl, 2 mM KCl, 0.3 mM BaCl2, and 5 mM HEPES, pH 7.4. Response magnitude was determined in xenopus oocytes expressing different NMDAR subunits (GluN1/2A, 1/2B, 1/2C, 1/2D, and 1/2A/2B) by the steady plateau response elicited by bath application of different agonist concentrations. […] Response amplitudes for functional NMDARs were generally between 0.1 and 2 μA. […] Dose–response relationships were fit to an appropriate curve‐fitting equation using GraphPad Prism‐7. Nonlinear regression was used to calculate EC50 and/or percentage maximal response. […] Statistical significance was determined at the overall alpha level .05, using appropriate statistical methods as described in each figure captions."}, "GluN1/2A [3]": {"target": "T2, GluN1/2A (UniProt P35439+Q12879)", "T2 sequence (Q12879 23-1464, other chains not shown)": "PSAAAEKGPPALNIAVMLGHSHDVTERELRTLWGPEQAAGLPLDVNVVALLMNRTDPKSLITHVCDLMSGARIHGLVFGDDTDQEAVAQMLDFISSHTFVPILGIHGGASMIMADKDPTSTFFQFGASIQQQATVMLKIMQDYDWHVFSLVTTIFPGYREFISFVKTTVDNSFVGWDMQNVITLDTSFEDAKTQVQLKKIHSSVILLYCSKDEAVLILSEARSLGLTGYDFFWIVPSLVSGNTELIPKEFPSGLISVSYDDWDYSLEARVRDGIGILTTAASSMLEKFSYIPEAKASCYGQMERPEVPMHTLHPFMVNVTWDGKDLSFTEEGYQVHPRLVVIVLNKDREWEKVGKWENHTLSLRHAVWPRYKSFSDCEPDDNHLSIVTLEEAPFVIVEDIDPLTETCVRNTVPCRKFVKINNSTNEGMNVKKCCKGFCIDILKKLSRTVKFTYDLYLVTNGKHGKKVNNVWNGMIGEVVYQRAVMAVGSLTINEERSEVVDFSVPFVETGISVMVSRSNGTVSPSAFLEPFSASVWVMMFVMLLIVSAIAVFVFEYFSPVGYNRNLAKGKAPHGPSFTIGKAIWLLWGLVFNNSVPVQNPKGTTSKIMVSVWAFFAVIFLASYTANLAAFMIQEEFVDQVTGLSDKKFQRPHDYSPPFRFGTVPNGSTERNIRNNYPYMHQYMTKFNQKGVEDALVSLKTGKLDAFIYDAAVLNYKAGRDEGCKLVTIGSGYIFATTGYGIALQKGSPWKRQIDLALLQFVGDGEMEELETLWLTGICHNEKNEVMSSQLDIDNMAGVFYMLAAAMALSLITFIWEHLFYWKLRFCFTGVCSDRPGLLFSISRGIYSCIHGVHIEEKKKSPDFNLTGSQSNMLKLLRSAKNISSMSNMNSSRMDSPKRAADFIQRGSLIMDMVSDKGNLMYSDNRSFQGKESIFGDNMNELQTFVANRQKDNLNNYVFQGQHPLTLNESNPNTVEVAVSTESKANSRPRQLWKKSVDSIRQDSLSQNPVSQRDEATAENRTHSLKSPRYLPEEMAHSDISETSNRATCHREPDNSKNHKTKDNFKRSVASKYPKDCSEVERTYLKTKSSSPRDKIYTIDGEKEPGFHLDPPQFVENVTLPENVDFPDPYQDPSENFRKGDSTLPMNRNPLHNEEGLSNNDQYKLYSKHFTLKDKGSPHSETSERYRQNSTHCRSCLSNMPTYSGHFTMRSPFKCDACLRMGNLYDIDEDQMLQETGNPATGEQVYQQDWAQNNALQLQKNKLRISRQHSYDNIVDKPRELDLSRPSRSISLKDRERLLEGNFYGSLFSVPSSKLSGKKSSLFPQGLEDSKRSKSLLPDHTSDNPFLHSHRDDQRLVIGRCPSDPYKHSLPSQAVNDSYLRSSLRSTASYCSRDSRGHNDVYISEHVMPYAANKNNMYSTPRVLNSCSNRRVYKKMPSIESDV", "experiment": "Current–voltage (I–V) relationship, TEVC in xenopus oocytes", "procedure": "as §4, §5"}, "GluN1/2B [4]": {"target": "T3, GluN1/2B (Rattus norvegicus, UniProt P35439+Q00960)", "T3 sequence (Q00960 27-1482, other chains not shown)": "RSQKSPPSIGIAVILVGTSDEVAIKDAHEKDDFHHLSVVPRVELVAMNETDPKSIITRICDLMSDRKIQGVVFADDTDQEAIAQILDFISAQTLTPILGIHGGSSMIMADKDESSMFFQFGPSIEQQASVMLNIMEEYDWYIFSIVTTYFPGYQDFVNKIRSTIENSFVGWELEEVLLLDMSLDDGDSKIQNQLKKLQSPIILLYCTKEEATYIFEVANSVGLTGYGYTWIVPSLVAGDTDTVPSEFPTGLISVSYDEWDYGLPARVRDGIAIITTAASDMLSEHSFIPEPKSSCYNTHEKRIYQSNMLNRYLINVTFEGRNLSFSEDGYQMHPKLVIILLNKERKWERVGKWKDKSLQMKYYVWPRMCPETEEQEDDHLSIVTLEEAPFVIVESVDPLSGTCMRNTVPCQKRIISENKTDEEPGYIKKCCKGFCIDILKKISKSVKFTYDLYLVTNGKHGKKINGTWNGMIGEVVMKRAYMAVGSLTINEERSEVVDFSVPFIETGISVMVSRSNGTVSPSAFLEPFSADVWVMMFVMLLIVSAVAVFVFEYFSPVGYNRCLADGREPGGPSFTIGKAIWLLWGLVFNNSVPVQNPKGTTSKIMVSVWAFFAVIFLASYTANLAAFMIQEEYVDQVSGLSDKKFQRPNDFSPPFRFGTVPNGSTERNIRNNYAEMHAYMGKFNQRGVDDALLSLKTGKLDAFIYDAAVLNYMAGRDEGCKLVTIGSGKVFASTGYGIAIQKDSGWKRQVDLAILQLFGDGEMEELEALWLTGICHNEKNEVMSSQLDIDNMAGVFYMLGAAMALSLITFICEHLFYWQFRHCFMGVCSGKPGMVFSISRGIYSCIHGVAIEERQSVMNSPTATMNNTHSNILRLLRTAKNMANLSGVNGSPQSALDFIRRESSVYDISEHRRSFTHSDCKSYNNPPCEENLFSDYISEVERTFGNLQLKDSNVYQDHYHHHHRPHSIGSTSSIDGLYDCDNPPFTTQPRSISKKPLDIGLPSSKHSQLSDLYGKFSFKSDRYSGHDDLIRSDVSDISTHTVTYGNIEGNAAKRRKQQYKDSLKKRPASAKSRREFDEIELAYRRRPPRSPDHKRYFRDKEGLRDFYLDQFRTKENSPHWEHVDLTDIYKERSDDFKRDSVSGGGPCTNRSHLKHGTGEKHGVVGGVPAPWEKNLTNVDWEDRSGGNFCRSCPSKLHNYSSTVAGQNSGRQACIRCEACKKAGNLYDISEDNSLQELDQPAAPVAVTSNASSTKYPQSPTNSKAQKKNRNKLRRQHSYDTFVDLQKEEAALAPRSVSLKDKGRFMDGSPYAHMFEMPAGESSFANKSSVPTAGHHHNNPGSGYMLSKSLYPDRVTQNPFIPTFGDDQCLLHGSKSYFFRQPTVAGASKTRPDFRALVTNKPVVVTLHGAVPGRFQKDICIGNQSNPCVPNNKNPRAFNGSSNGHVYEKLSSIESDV", "experiment": "TEVC electrophysiology dose–response in xenopus oocytes", "assay_type": "cell-based", "set-up": "SEP (super-ecliptic pHluorin); host or cells: Xenopus oocytes (cRNA injection)", "conditions": "100 µM CNS4; 0.3 µM glutamate + 100 µM glycine; −60 mV; average ± SEM", "source_text": "NMDAR constructs: cDNA encoding the NMDAR1a subunit (GluN1a) was obtained from Dr. Nakanishi. cDNA encoding the GluN2B (pci_sepGluN2B) was developed initially in the Malinow lab[36] and purchased from Addgene (cat# 23998). cDNA encoding the GluN2C and GluN2D were purchased from GenScript. Mutated GluN1, 2A and 2B cDNA constructs capable of assembling as GluN1/2A/2B triheteromeric (1/2AB) receptors[37] were obtained from Dr. Paoletti (Laboratoire de Neurobiologie, CNRS). […] Plasmids were linearized with NotI (GluN1a) or Avrll (GluN2B), or BstB1 (GluN2C and GluN2D) and transcribed in vitro with T7 (GluN1a, GluN1/2A, GluN2B, GluN2C, & GluN2D) RNA polymerase using the mMessage mMachine transcription kits (Invitrogen by Thermo Fisher Scientific). […]\nElectrophysiological responses were measured using a standard two‐microelectrode voltage‐clamp workstation [Warner Instruments (Hamden, Connecticut) model OC‐725C] designed to provide a fast clamp of large cells. […] Response magnitude was determined in xenopus oocytes expressing different NMDAR subunits (GluN1/2A, 1/2B, 1/2C, 1/2D, and 1/2A/2B) by the steady plateau response elicited by bath application of different agonist concentrations. […] Statistical significance was determined at the overall alpha level .05, using appropriate statistical methods as described in each figure captions."}, "GluN1/2A [5]": {"target": "T2, GluN1/2A", "experiment": "TEVC electrophysiology dose–response in xenopus oocytes", "assay_type": "cell-based", "conditions": "100 µM CNS4, −60 mV, average ± SEM", "source_text": "as §6, §7\nElectrophysiological responses were measured using a standard two‐microelectrode voltage‐clamp workstation [Warner Instruments (Hamden, Connecticut) model OC‐725C] designed to provide a fast clamp of large cells. The recording buffer contained 116 mM NaCl, 2 mM KCl, 0.3 mM BaCl2, and 5 mM HEPES, pH 7.4. Response magnitude was determined in xenopus oocytes expressing different NMDAR subunits (GluN1/2A, 1/2B, 1/2C, 1/2D, and 1/2A/2B) by the steady plateau response elicited by bath application of different agonist concentrations. […] Response amplitudes for functional NMDARs were generally between 0.1 and 2 μA. […] Dose–response relationships were fit to an appropriate curve‐fitting equation using GraphPad Prism‐7. Nonlinear regression was used to calculate EC50 and/or percentage maximal response. Curve fittings were done using the following equations as performed in the previous studies[34], [39]: Y = 100/(1 + 10^(LogEC50‐X)) or Y = Bottom + (Top − Bottom)/(1+10^(LogEC50‐X)). Statistical significance was determined at the overall alpha level .05, using appropriate statistical methods as described in each figure captions."}, "[6]": {"test_system": "cultured rat brain striatal neurons", "experiment": "Na^+ assay (CoroNa green‐AM)", "assay_type": "cell-based", "conditions": "0.3 µM NMDA plus 100 µM CNS4; highest level", "description": "(§1) All animal experimental procedures and housing have been approved by the Institutional Animal Care and Use Committee (IACUC) protocol #18‐015 of Virginia Tech. Embryonic day 18 (E18) rat brain tissue samples were obtained from adult pregnant SD rats. Rat brain primary cortical, striatal, and cerebellar neurons were cultured on poly‐d‐lysine coated 96‐well plates for 14 days in vitro (DIV14) before using for the experiments. Primary rat neuron culture was performed as previously published.[44] Briefly, each well of a 96 well plate was loaded with 50 000 cells and grown in 200 µl neurobasal media supplemented with B27, glutamax, penicillin, streptomycin. One hundred microliters of media was replaced with fresh media once in 4 days. Eight to thirteen fetus were obtained from each pregnant rat. Brain tissue from these fetus were pooled to obtain the neurons. Cortical, striatal, and cerebellar neuron assays were carried out at different time points.\n(§2) For Na^+ assay, DIV14 neurons were washed with HBSS and treated with freshly prepared CoroNa green‐AM dye (ThermoFisher, cat # C36676) and incubated for 45 min in 37°C. Plates were washed twice with HBSS before adding drug solutions dissolved in HBSS, and read at 492/516 nm (ex/em) using a plate reader. RFU values of background control and treatments were plotted to identify the effect of CNS4 on NMDA‐induced Na^+ flux in the neurons."}, "[7]": {"test_system": "cultured rat brain cerebellar neurons", "experiment": "Na^+ assay (CoroNa green‐AM)", "assay_type": "cell-based", "description": "as §1, §2"}, "GluN1/2B [8]": {"target": "T3, GluN1/2B", "experiment": "Current–voltage (I–V) relationship, TEVC in xenopus oocytes", "procedure": "as §4, §5"}, "[9]": {"test_system": "cultured rat brain striatal neurons", "experiment": "Dynamic calcium assay (Fluo‐8)", "assay_type": "cell-based", "description": "as §1\n(§3) Dynamic calcium assay was carried out, using Fluo‐8 no‐wash kit (abcam, ab112129), as per the manufacturer's instructions with minor modifications to fit with experimental necessities. On DIV14, all 200 μl of media was removed and replaced it with 100 μl of HBSS and 100 μl of Fluo‐8 dye loading solution. The plates were incubated at 37°C for 30 min and at room temperature for 30 min. A volume of 100 µL of test chemicals (3× of desired final concentration) was added to the plates immediately before running the calcium flux assay and read the fluorescence intensity at 490/525 nm (ex/em) using Synergy microplate reader, BioTek, VT. Costar 96‐well clear bottom black side plates were read from the bottom, nine times, with 60 s intervals between each read. Temperature was set at 37°C and reading speed was 100 ms."}, "[10]": {"test_system": "cultured rat brain cerebellar neurons", "experiment": "Dynamic calcium assay (Fluo‐8)", "assay_type": "cell-based", "conditions": "100 µM CNS4 plus 300 µM NMDA; p < .01 vs 300 µM NMDA (12810)", "description": "as §1, §3"}, "[11]": {"target": "GluN1/2A/2B triheteromeric (1/2AB) receptors (Rattus norvegicus, UniProt P35439+Q00959+Q01097)", "experiment": "TEVC electrophysiology dose–response in xenopus oocytes", "conditions": "100 µM CNS4, −60 mV, average ± SEM", "source_text": "as §6, §7, §8"}, "[12]": {"test_system": "cultured rat brain cortical neurons", "experiment": "Na^+ assay (CoroNa green‐AM)", "assay_type": "cell-based", "description": "as §1\nas §2, with “Plates were washed twice with HBSS before adding drug solutions dissolved in HBSS, and read at 492/516 nm (ex/em) using a plate reader.” left out"}, "GluN1/2C": {"target": "GluN1/2C (UniProt P35439+Q14957)", "experiment": "Current–voltage (I–V) relationship, TEVC in xenopus oocytes", "procedure": "as §4, §5"}, "[13]": {"conditions": "100 µM CNS4, 100 µM glutamate + 100 µM glycine, −90 to +30 mv"}, "[14]": {"conditions": "0.3 µM glutamate + 100 µM glycine"}, "[15]": {"conditions": "100 µM glutamate + 100 µM glycine"}, "[16]": {"conditions": "300 µM glutamate + 100 µM glycine"}},
  "data": [
    {"compound": "O=C(NC(=S)N1CCCCC1c1cccnc1)c1ccc(F)cc1", "note": "(stereo not shown) [CNS4, 4‐fluoro‐N‐(2‐(pyridin‐3‐yl)piperidine‐1‐carbonothioyl)benzamide]", "values": [
      {"measurement": "inward current reversal potential", "setting": "GluN1/2D [1]; 0.3 µM glutamate + 100 µM glycine + CNS4, absence of Mg2+, without CNS4 -84.35± 0.42, p<0.0001, n=6", "value": "-72.52±0.85", "unit": "mv"},
      {"measurement": "inward current reversal potential", "setting": "GluN1/2D [1]; 0.3 µM glutamate + 100 µM glycine + CNS4, presence of Mg2+, without CNS4 -88.29± 0.35, p<0.0001, n=6", "value": "-77.88±0.87", "unit": "mv"},
      {"measurement": "voltage dependence of effect on current amplitude", "setting": "GluN1/2D [1]; [13]", "value": "no voltage dependence effect"},
      {"measurement": "reversal potential", "setting": "GluN1/2D [1]; agonist (100 µM glutamate + 100 µM glycine) + 40 µM MgCl2 + 100 µM CNS4, without CNS4 −75.8 ± 5.51, p > .05", "value": "−72.58 ± 3.08", "unit": "mv"},
      {"measurement": "reversal potential", "setting": "GluN1/2D [1]; agonist (100 µM glutamate + 100 µM glycine) + 100 µM CNS4, absence of Mg^2+, agonist alone −54.2 ± 4.5, p > .05", "value": "−56.05 ± 5.8", "unit": "mv"},
      {"measurement": "current response, agonist alone induced maximum current normalized to 100%", "setting": "GluN1/2D [2]; 100 µM CNS4, 0.3 µM glutamate + 100 µM glycine, −60 mV, average ± SEM", "value": "850.35% ± 133.9%"},
      {"measurement": "potentiation of receptor current", "setting": "GluN1/2D [2]; higher concentration (100 & 300 µM) of glutamate, almost no effect", "value": "< 20", "unit": "%"},
      {"measurement": "voltage dependence of effect on current amplitude", "setting": "GluN1/2A [3]; [13]", "value": "no voltage dependence effect"},
      {"measurement": "reversal potential", "setting": "GluN1/2A [3]; agonist (100 µM glutamate + 100 µM glycine) + 40 µM MgCl2 + 100 µM CNS4, without CNS4 −20.06 ± 2.6, p > .05", "value": "−17.57 ± 2.0", "unit": "mv"},
      {"measurement": "reversal potential", "setting": "GluN1/2A [3]; agonist (100 µM glutamate + 100 µM glycine) + 100 µM CNS4, absence of Mg^2+, agonist alone −17.42 ± 2.2, p > .05", "value": "−17.54 ± 1.8", "unit": "mv"},
      {"measurement": "current response, agonist alone induced maximum current normalized to 100%", "setting": "GluN1/2B [4]", "value": "193.22% ± 21.2%"},
      {"measurement": "current response, agonist alone induced maximum current normalized to 100%", "setting": "GluN1/2A [5]; [14]", "value": "negligible effect"},
      {"measurement": "current response, agonist alone induced maximum current normalized to 100%", "setting": "GluN1/2A [5]; [15]", "value": "186.08% ± 23.5%"},
      {"measurement": "current response, agonist alone induced maximum current normalized to 100%", "setting": "GluN1/2A [5]; [16]", "value": "122.87% ± 9.9%"},
      {"measurement": "Na^+ signal", "setting": "[6]", "value": 426039, "unit": "rfu"},
      {"measurement": "Na^+ signal", "setting": "[7]; 0.3 µM NMDA plus 100 µM CNS4, highest level", "value": 420668, "unit": "rfu"},
      {"measurement": "Na^+ signal", "setting": "[7]; 100 µM CNS4 alone, Figure 7C", "value": "significantly increased"},
      {"measurement": "voltage dependence of effect on current amplitude", "setting": "GluN1/2B [8]; [13]", "value": "no voltage dependence effect"},
      {"measurement": "reversal potential", "setting": "GluN1/2B [8]; agonist (100 µM glutamate + 100 µM glycine) + 40 µM MgCl2 + 100 µM CNS4, without CNS4 −11.66 ± 1.25, p > .05", "value": "−6.9 ± 0.74", "unit": "mv"},
      {"measurement": "reversal potential", "setting": "GluN1/2B [8]; agonist (100 µM glutamate + 100 µM glycine) + 100 µM CNS4, absence of Mg^2+, agonist alone −11.66 ± 1.55, p > .05", "value": "−10.89 ± 1.9", "unit": "mv"},
      {"measurement": "Ca^2+ signal, mean rfu", "setting": "[9]; 100 µM CNS4 in vehicle, no NMDA, background control 13964, p < .0001", "value": 6317, "unit": "rfu"},
      {"measurement": "CNS4 induced potentiation of Ca^2+ signal vs 300 µM NMDA", "setting": "[9]; 100 µM CNS4 plus 300 µM NMDA", "value": 86, "unit": "%"},
      {"measurement": "Ca^2+ signal, mean rfu", "setting": "[9]; 100 µM CNS4 plus 300 µM NMDA, p < .0001 vs 300 µM NMDA alone (20964)", "value": 39001, "unit": "rfu"},
      {"measurement": "Ca^2+ signal, rfu", "setting": "[10]", "value": 14423, "unit": "rfu"},
      {"measurement": "current response, agonist alone induced maximum current normalized to 100%", "setting": "[11]; [14]", "value": "264.37% ± 16.9%"},
      {"measurement": "current response, agonist alone induced maximum current normalized to 100%", "setting": "[11]; [15]", "value": "122.65% ± 1.9%"},
      {"measurement": "current response, agonist alone induced maximum current normalized to 100%", "setting": "[11]; [16]", "value": "144.47% ± 11.8%"},
      {"measurement": "Na^+ signal, mean rfu", "setting": "[12]; 100 µM CNS4 + 0.3 µM NMDA, p < .0001 vs CNS4 with no NMDA (412544)", "value": 391591, "unit": "rfu"},
      {"measurement": "Na^+ signal compared to 300 µM NMDA alone", "setting": "[12]; 100 µM CNS4 + 30–300 µM NMDA", "value": "significantly higher Na^+ signal"},
      {"measurement": "Na^+ signal, mean rfu", "setting": "[12]; 100 µM CNS4 + glutamate + MK801, p = .0024 vs glutamate + MK801 ([…])", "value": 519331, "unit": "rfu"},
      {"measurement": "Na^+ signal, mean rfu", "setting": "[12]; 100 µM CNS4 alone, Figure 8B", "value": 538755, "unit": "rfu"},
      {"measurement": "Na^+ signal, mean rfu", "setting": "[12]; 100 µM CNS4 with no NMDA, Figure 7A", "value": 412544, "unit": "rfu"},
      {"measurement": "inward current reversal potential", "setting": "GluN1/2C; 0.3 µM glutamate + 100 µM glycine + CNS4, absence of Mg2+, without CNS4 -86.44± 0.74, p<0.0001, n=7", "value": "-75.15±1.33", "unit": "mv"},
      {"measurement": "inward current reversal potential", "setting": "GluN1/2C; 0.3 µM glutamate + 100 µM glycine + CNS4, presence of Mg2+, without CNS4 -88.59± 0.30, p<0.001, n=7", "value": "-79.25±1.87", "unit": "mv"},
      {"measurement": "voltage dependence of effect on current amplitude", "setting": "GluN1/2C; [13]", "value": "no voltage dependence effect"},
      {"measurement": "reversal potential", "setting": "GluN1/2C; agonist (100 µM glutamate + 100 µM glycine) + 40 µM MgCl2 + 100 µM CNS4, without CNS4 −81.75 ± 1.37, p < .01", "value": "−75.53 ± 0.59", "unit": "mv"},
      {"measurement": "reversal potential", "setting": "GluN1/2C; agonist (100 µM glutamate + 100 µM glycine) + 100 µM CNS4, absence of Mg^2+, agonist alone −69.55 ± 1.51, p < .01", "value": "−63.64 ± 0.80", "unit": "mv"}
    ]}
  ]
}
